Experimental data from patent publication US20250034197A1, “NUCLEOSIDE-DIPHOSPHATE-HEPTOSE COMPOUNDS FOR TREATING CONDITIONS ASSOCIATED WITH ALPK1 ACTIVITY” (PYROTECH (BEIJING) BIOTECHNOLOGY CO., LTD., priority 2021, published 2025).
Read-outs that look alike come from different tables or passages of the source.

Legend:
ALPK1 [1] = biological target: T1, ALPK1 (Homo sapiens, UniProt Q96QP1); experiment: Enzymatic assay of ALPK1 activation; format: biochemical
T1 construct: endogenous in cells; host or cells: 293T cells

ALPK1 [2] = biological target: T1, ALPK1; experiment: NF-κB luciferase reporter assay in 293T cells (cellular assay); format: cell-based
Procedure: The compounds disclosed herein activate NF-κB through ALPK1-TIFA axis as determined by the NF-κB luciferase reporter and TIFA phosphorylation. For NF-κB luciferase assay, the plasmids (pNL2.2-BII-5RE-Luc), and control vector (pRL-TK) were transfected into 293T cells with the Jetprime reagents (Polyplus). NF-κB luciferase activity was determined using the dual luciferase assay kit (Promega) according to the manufacturer's instructions. TIFA phosphorylation upon the treatment with the compounds disclosed herein described in Table 1, were assayed with immunoblotting. Briefly, for the immunoblotting assay, the 293T cells were seeded in 12-well-plates and cultured for 16 h, and treated with indicated compounds for another 2 hours. Subsequently, the cells were collected and sampled as the regular western-blotting method, immunoblotted by the TIFA phosphorylation specific antibody (ab214815, Abcam).
The EC50 of the compounds disclosed herein were determined by the NF-κB luciferase reporter assay using 293T cells described supra. Compounds with indicated concentrations were added to the culture medium of 293T and the NF-κB luciferase activity was determined using the dual luciferase assay kit (Promega) according to the manufacturer's instructions. […] These chemical entities induce strong activation of the immune regulator NF-κB.

[3] = PK / tissue distribution in Sprague-Dawley rats; format: in vivo; conditions: female, rat; for Cmax: PO, 5 mg/kg; for clearance: IV 1 mg/kg, read-out: CL post IV Dosing @1 mg/kg; for half-life: PO 5 mg/kg, read-out: T1/2 post PO Dosing @5 mg/kg (converted)
Procedure: Tissue distribution study of the compounds disclosed herein were conducted in SD rats and mice to assess their liver-targeting properties. The compounds disclosed herein were orally administered to SD rats and mice, and the concentration of the compound and its metabolites were tested in plasma and liver at different time points.
The pharmacokinetics of the compounds disclosed herein were evaluated in female Sprague-Dawley rats after administration via oral gavage and intravenous bolus (IV) injection. The test compound was dissolved in 0.5% methylcellulose for oral gavage and in 30% HP-β-CD for IV injection. The animals used for oral administration were fasted overnight prior to dosing and fed normal daily feed at 4 hours post-dose, but the animals used for IV dosing had free access to food during the study. Plasma samples were collected at pre-dose, 0.033 (IV only), 0.083, 0.25, 0.5, 1, 2, 4, 7 and 24 hours post-dose. Liver samples were collected at 1, 3 and 6 hours post-dose. The samples were analyzed by LC/MS/MS and the concentrations of test compound and its metabolites at each time point were determined. Pharmacokinetic parameters were calculated from the plasma concentrations using Pheonix WinNonlin.
Particularly, preferable compounds have a ratio for liver concentration to plasma concentration of greater than 2, more preferable compounds have a ratio for liver concentration to plasma concentration of greater than 5, and most preferable compounds have a ratio for liver concentration to plasma concentration of greater than 10. The PK properties and tissue exposure of representative compounds and control compound ADPS-Heptose in Rats are given below.

[4] = plasma, read-out: Cmax in Plasma

T1 sequence (Q96QP1 whole entry): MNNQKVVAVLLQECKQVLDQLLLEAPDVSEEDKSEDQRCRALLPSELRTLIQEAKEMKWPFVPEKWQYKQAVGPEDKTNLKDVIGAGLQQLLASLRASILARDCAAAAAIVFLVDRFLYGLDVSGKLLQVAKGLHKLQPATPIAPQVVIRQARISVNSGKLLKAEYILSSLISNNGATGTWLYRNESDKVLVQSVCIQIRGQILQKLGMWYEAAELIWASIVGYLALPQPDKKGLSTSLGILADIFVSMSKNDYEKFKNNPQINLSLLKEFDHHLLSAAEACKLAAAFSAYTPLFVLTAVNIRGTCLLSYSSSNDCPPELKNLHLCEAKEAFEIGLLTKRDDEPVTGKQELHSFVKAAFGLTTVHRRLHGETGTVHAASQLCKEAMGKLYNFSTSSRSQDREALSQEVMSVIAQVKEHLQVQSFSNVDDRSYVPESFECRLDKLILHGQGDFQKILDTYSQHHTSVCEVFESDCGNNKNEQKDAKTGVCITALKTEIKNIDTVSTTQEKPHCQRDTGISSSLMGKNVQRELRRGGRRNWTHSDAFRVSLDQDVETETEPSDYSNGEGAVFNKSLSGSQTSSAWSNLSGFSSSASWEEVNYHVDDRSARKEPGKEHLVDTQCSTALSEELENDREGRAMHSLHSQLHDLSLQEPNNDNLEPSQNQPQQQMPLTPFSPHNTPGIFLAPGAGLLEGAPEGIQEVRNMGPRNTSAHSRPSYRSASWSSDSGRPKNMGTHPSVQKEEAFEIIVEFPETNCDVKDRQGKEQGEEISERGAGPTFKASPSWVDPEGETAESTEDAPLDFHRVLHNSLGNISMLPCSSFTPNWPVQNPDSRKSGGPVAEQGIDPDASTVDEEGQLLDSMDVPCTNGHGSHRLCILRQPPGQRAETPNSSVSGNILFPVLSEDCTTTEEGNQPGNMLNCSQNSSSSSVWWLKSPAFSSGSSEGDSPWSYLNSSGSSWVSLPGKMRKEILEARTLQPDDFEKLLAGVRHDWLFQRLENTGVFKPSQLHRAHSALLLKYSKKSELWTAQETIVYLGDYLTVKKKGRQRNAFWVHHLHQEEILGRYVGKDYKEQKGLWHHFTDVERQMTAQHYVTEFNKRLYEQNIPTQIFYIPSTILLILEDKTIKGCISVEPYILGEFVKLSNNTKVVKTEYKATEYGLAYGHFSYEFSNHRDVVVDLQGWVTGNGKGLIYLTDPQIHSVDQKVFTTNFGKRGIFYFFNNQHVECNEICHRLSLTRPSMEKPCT

Row | EC50 (ALPK1 [1]) | EC50 (ALPK1 [2]) | Compound | Cmax ([3]; liver, read-out: Cmax in Liver) | Cmax [3, 4] | clearance ([3]; plasma) | half-life ([3]; plasma)
1 | 48 nM | 18.3 nM | C=C[C@@]1(O)[C@H](O)[C@@H](COP(=O)(S)OP(=O)(O)OC2OC([C@@H](O)CO)C(O)C(O)C2O)O[C@H]1n1ccc(=O)[nH]c1=O (stereo partly shown) [Example 43D] |  |  |  | 
2 | 24 nM | 16 nM | C=C[C@@]1(O)[C@H](O)[C@@H](COP(=O)(S)OP(=O)(O)OC2OC([C@@H](O)CO)C(O)C(O)C2O)O[C@H]1n1cnc2c(N)ncnc21 (stereo partly shown) [Example 31D] |  |  |  | 
3 | 11 nM | 14 nM | C=C[C@@]1(F)[C@H](O)[C@@H](COP(=O)(S)OP(=O)(O)OC2OC([C@@H](O)CO)C(O)C(O)C2O)O[C@H]1n1ccc(=O)[nH]c1=O (stereo partly shown) [Example 42D] |  |  |  | 
4 | 17 nM | 8.41 nM | C#C[C@@]1(O)[C@H](O)[C@@H](COP(=O)(S)OP(=O)(O)OC2OC([C@@H](O)CO)C(O)C(O)C2O)O[C@H]1n1cnc2c(N)ncnc21 (stereo partly shown) [Example 25D] |  |  |  | 
5 | 11 nM | 7.01 nM | C=C[C@@]1(O)[C@H](O)[C@@H](CO[P@](=O)(S)OP(=O)(O)OC2OC([C@@H](O)CO)C(O)C(O)C2O)O[C@H]1n1cnc2c(N)ncnc21 (single isomer, unassigned) [Example 31Q] |  |  |  | 
6 |  | 2.94 nM | C=C[C@@]1(O)[C@H](O)[C@@H](COP(=O)(S)OP(=O)(O)OC2OC([C@H](COC(C)=O)OC(C)=O)C(OC(C)=O)C(OC(C)=O)C2OC(C)=O)O[C@H]1c1cnc2c(N)ncnn12 (stereo partly shown) [Example 127C] | 48.5 ng/g | 0.4 ng/mL | 17.6 mL/min/kg | 38.4 min
7 |  | 7.57 nM | C=C[C@@]1(F)[C@H](O)[C@@H](COP(=O)(S)OP(=O)(O)OC2OC([C@H](COC(C)=O)OC(C)=O)C(OC(C)=O)C(OC(C)=O)C2OC(C)=O)O[C@H]1n1ccc(=O)[nH]c1=O (stereo partly shown) [Example 42C] | 31.7 ng/g | 2.4 ng/mL | 18.6 mL/min/kg | 37.8 min
8 | 26 nM | 4.08 nM | C#C[C@@]1(F)[C@H](O)[C@@H](COP(=O)(S)OP(=O)(O)OC2OC([C@@H](O)CO)C(O)C(O)C2O)O[C@H]1n1cnc2c(N)ncnc21 (stereo partly shown) [Example 21D] |  |  |  | 
9 | 12 nM | 13.6 nM | C=C[C@@]1(O)[C@H](O)[C@@H](CO[P@@](=O)(S)OP(=O)(O)OC2OC([C@@H](O)CO)C(O)C(O)C2O)O[C@H]1n1cnc2c(N)ncnc21 (single isomer, unassigned) [Example 31R] |  |  |  | 
10 |  | 20.7 nM | C=C[C@@]1(O)[C@H](O)[C@@H](COP(=O)(S)OP(=O)(O)OC2OC([C@H](COC(C)=O)OC(C)=O)C(OC(C)=O)C(OC(C)=O)C2OC(C)=O)O[C@H]1n1ccc(=O)[nH]c1=O (stereo partly shown) [Example 43C] | 22.4 ng/g | < 1 ng/mL | 8.25 mL/min/kg | 140 min
11 | 64 nM | 5.66 nM | C#C[C@@]1(F)[C@H](O)[C@@H](COP(=O)(S)OP(=O)(O)OC2OC([C@@H](O)CO)C(O)C(O)C2O)O[C@H]1n1ccc(=O)[nH]c1=O (stereo partly shown) [Example 22D] |  |  |  | 
12 |  | > 3000 nM | C=C[C@@]1(N=[N+]=[N-])[C@H](O)[C@@H](COP(=O)(S)OP(=O)(O)OC2OC([C@H](COC(C)=O)OC(C)=O)C(OC(C)=O)C(OC(C)=O)C2OC(C)=O)O[C@H]1n1ccc(=O)[nH]c1=O (stereo partly shown) [Example 108C] |  |  |  | 
13 |  | > 3000 nM | Nc1ncnc2c1ncn2[C@@H]1O[C@H](COP(=O)(S)OP(=O)(O)OC2OC([C@@H](O)CO)C(O)C(O)C2O)[C@@H](O)[C@H]1N1CCCC1 (stereo partly shown) [Example 37D] |  |  |  | 
14 |  | 40.2 nM | CC(=O)OC[C@H](OC(C)=O)C1OC(OP(=O)(O)OP(=O)(S)OC[C@H]2O[C@@H](n3cnc4c(N)ncnc43)[C@H](N)[C@@H]2O)C(OC(C)=O)C(OC(C)=O)C1OC(C)=O (stereo partly shown) [Example 33C] |  |  |  | 
15 |  | > 3000 nM | C#C[C@]1(O)[C@H](O)[C@@H](COP(=O)(S)OP(=O)(O)OC2OC([C@H](COC(C)=O)OC(C)=O)C(OC(C)=O)C(OC(C)=O)C2OC(C)=O)O[C@H]1n1ccc(=O)[nH]c1=O (stereo partly shown) [Example 26E] |  |  |  | 
16 |  | 713 nM | CN(C)[C@@H]1[C@H](O)[C@@H](COP(=O)(S)OP(=O)(O)OC2OC([C@@H](O)CO)C(O)C(O)C2O)O[C@H]1n1ccc(=O)[nH]c1=O (stereo partly shown) [Example 40D] |  |  |  | 
17 |  | 101 nM | CS[C@@H]1[C@H](O)[C@@H](COP(=O)(S)OP(=O)(O)OC2OC([C@@H](O)CO)C(O)C(O)C2O)O[C@H]1n1ccc(=O)[nH]c1=O (stereo partly shown) [Example 262D] |  |  |  | 
18 | 4.1 nM | 5.71 nM | C=C[C@@]1(F)[C@H](O)[C@@H](COP(=O)(S)OP(=O)(O)OC2OC([C@@H](O)CO)C(O)C(O)C2O)O[C@H]1n1cnc2c(N)ncnc21 (single isomer, unassigned) [Example 41D] |  |  |  | 

Row | Compound | EC50 (ALPK1 [1]) | EC50 (ALPK1 [2]) | Cmax ([3]; liver, read-out: Cmax in Liver) | Cmax [3, 4] | clearance ([3]; plasma) | half-life ([3]; plasma)
19 | C=C[C@@]1(O)[C@H](O)[C@@H](COP(=O)(S)OP(=O)(O)OC2OC([C@H](COC(C)=O)OC(C)=O)C(OC(C)=O)C(OC(C)=O)C2OC(C)=O)O[C@H]1n1cnc2c(N)ncnc21 (stereo partly shown) [Example 31C] |  | 16.9 nM | 30.5 ng/g | < 1 ng/mL | 14.6 mL/min/kg | 104 min
20 | C=C[C@@]1(O)[C@H](O)[C@@H](COP(=O)(OP(=O)(O)OC2OC([C@H](COC(C)=O)OC(C)=O)C(OC(C)=O)C(OC(C)=O)C2OC(C)=O)SCOC(=O)C(C)C)O[C@H]1n1cnc2c(N)ncnc21 (stereo partly shown) [Example 31K] |  | 57.6 nM |  |  |  | 
21 | C=C[C@@]1(F)[C@H](O)[C@@H](COP(=O)(S)OP(=O)(O)OC2OC([C@H](COC(C)=O)OC(C)=O)C(OC(C)=O)C(OC(C)=O)C2OC(C)=O)O[C@H]1n1cnc2c(N)ncnc21 (stereo partly shown) [Example 41C] |  | 8.31 nM | 18.7 ng/g | < 1 ng/mL | 9.76 mL/min/kg | 51 min
22 | CC(=O)OC[C@H](OC(C)=O)C1OC(OP(=O)(O)OP(=O)(S)OC[C@H]2O[C@@H](n3cnc4c(N)ncnc43)[C@H](N(C)C)[C@@H]2O)C(OC(C)=O)C(OC(C)=O)C1OC(C)=O (stereo partly shown) [Example 35C] |  | 18.9 nM | 1330 ng/g | 75.5 ng/mL | 7.67 mL/min/kg | 27 min
